Data on 3 compounds can be found in patent US5393777A, “Deferration using anguibactin siderophore” (State of Oregon Acting by and through the State Board of …, priority 1990, dated 1995).

“Also recorded” adds a separate entry of the source. Like-named read-outs stand apart in the source and are kept apart here. Where only a bound is given, the exact number is not on record here.

The conditions of series [1]: as known in the art; cited from earlier work.
The test system of series [2] is iron-binding proteins in the fish host. Put plainly: removal of iron from iron-binding proteins in the fish host. Particulars: in vivo.
Series [3] can be described thus: competitive binding assay, removal of Fe3+ from aerobactin. The conditions noted are these: competitive binding assays.
Series [4] in a line: Ga(III) binding. Particulars: anguibactin. How it is done: The structure of anguibactin was determined as outlined in Jalal et al., J. Am. Chem. Soc. 111:292 (1989), and shown schematically in FIG. 2. Anguibactin has a molecular weight of 348 g/mol, which is about half the molecular weight of deferoxamine (657 g/mol). Anguibactin can be regarded as a form of catechol rather than a monophenol. It has a unique structure which bears some resemblance to pyochelin. See Llinas et al., Biochemistry 12:3836 (1973). Anguibactin has been identified as ω-N-hydroxy-ω-[[2'-(2'',3''-dihydroxyphenyl)thiazolin-4'-yl]-carboxy]histamine by crystal X-ray diffraction studies of its anhydro derivative, proton and ^13 C nuclear magnetic resonance spectroscopy of its deferri and Ga(III) complex, fast-atom bombardment (FAB) mass spectrometry, and chemical degradation.

Series [5] is described as follows: removal of ferric ion from ferric hydroxide. The class given is binding. The conditions noted are these: aqueous, pH between 7 and 8.
Series [6] is described as follows: toxicity, general. Particulars: preliminary studies.
The test system of series [7] is rat heart cells. Put plainly: inhibition of iron uptake by rat heart cells. The class given is cell-based. The conditions noted are these: non-immortalized cells, data not shown.
Series [8] can be described thus: removal of ferric iron from aqueous solutions.
A short description of series [9]: toxicity on injection into fish. The class given is in vivo. Particulars: injection of 400 μl anguibactin. The text has this: (§1) Preliminary studies indicate that anguibactin toxicity is very low.
Series [10] relates to Vibrio anguillarum. As to the kind of experiment: experimental infection of salmonid fishes, iron supply by siderophore for growth of avirulent strain. The class given is in vivo. The conditions noted are these: fish infected with wild-type V. anguillarum. The text has this:
A mutant strain of Vibrio anguillarum termed 775:Tn1-5 was produced which contained the pJM1-derivative plasmid pJHC-91 in which a transposon element Tn1 was inserted into genetic unit I. This mutant strain can grow in vitro in iron-limited media only if the supernatant from strains containing the wild-type pJM1 plasmid, and thus plenty of anguibactin, is supplied. Therefore, strains harboring the pJHC-91 plasmid must be able to transport and incorporate iron from anguibactin but are not able to produce this anguibactin itself. Strains containing the pJHC-91 plasmid are able to synthesize the pOM2 outer membrane protein.

The nature of series [11]: toxicity on injection into rabbits. Particulars: injection of 400 μl. The class given is in vivo, rabbit.
Description: as §1

Series [12] can be described thus: calcium (Ca2+) affinity. The class given is binding. The conditions noted are these: anguibactin.
Series [13] can be described thus: solubility.
Series [14] is described as follows: binding of other metals.
Series [15] can be described thus: ferrous (Fe2+) affinity. The class given is binding.
For series [16], the system named is human diploid fibroblast cells. As to the kind of experiment: inhibition of 59Fe uptake by normal human diploid fibroblast cells (FIG. 3). The class given is cell-based. The conditions noted are these: 59Fe-containing cell-growth medium. How it is done: An experiment was conducted to characterize the chelation properties of anguibactin by examining its effect on iron uptake by mammalian cells in culture.
Normal human diploid fibroblast cells were mixed with ^59 Fe-containingcell-growth medium. Samples of the dosed cells were then incubated for increasing lengths of time. After each time period, the corresponding samples were rinsed to remove any free radioiron. The rinsed cells were treated with trypsin and the lysates precipitated with trichloroacetic acid. Radioactive counting of the precipitated lysates was performed using a Beckman counter. Addition of anguibactin and subsequent assay for radioiron in otherwise identical parallel samples yielded a measure of the capacity of the siderophore present in the cell-growth medium to interrupt the uptake of radioiron by the cultured cells.

Series [17] is described as follows: ferric iron (Fe3+) binding / affinity / formation constant. The text has this:
Each molecule of anguibactin chelates one ferric (Fe^3+ or Fe(III)) ion. Anguibactin also binds Ga(III).

Series [18] can be described thus: stability to acid hydrolysis. The class given is physicochemical.
The subject of series [19] is transferrin. Put plainly: removal of Fe3+ from transferrin. Particulars: anguibactin; competitive binding assays.
A short description of series [20]: excretion of radioiron (59Fe) in urine and feces. Particulars: about 10 mg incubated with 59FeCl3, subcutaneous, urine and feces over a week. The class given is in vivo, rats. How it is done: To determine the ability to excrete chelated iron, a procedure similar to that generally used to evaluate iron chelators is employed. Trace amounts of ^59 FeCl3 are incubated in vitro with about 10 mg anguibactin and subcutaneously injected into normal subjects such as rats. Cumulative excretion of radioiron is measured during the subsequent week in urine and feces. Weak iron chelators are not able enhance ^59 Fe excretion relative to a control injected with ^59 FeCl3 only. […] Evaluation of the distribution of radioiron in urine and stool provides an indication of whether the siderophore-bound iron is removed from plasma by kidneys (urine) or by the liver followed by excretion to the bile (stool).

The subject of series [21] is hemoglobin. Particulars: cited from earlier work.
The conditions of series [22]: deferoxamine; cited from earlier work.
The conditions of series [23]: theoretical; cited from earlier work.
For series [24] the following is noted: human, in vivo; cited from earlier work.
For series [25] the following is noted: cited from earlier work.
Series [26] relates to transferrin. Particulars: deferoxamine; cited from earlier work.
For series [27] the following is noted: cited from earlier work. The source holds these as a separate data set.
For series [28] the following is noted: in vivo; cited from earlier work.
The conditions of series [29]: deferoxamine; cited from earlier work. This is another data set of the same source.
For series [30], the system named is cytochromes. The conditions noted are these: cited from earlier work.
For series [31], the system named is hemosiderin. The conditions noted are these: cited from earlier work.
Series [32] concerns ferritin. Particulars: cited from earlier work.
For series [33], the system named is Yersinia enterocolitica. Particulars: in some cases; cited from earlier work.

Consider `O=C(O)CN(CCN(CC(=O)O)CC(=O)O)CC(=O)O` [EDTA], for which the “toxicity of calcium chelators” value in series [1] is “relatively toxic”.

As to `O=C(C1CSC(c2cccc(O)c2O)=N1)N(O)CCc1c[nH]cn1` (centres unmarked) [anguibactin, ω-N-hydroxy-ω-[[2'-(2'',3''-dihydroxyphenyl)thiazolin-4'-yl]-carboxy]histamine], the “removal of iron from transferrin and other iron-binding proteins in the fish host” value in series [2] was “very efficient in removing iron from aqueous solution as well as from transferrin and from other iron-binding proteins in the fish host”. Moreover, the “removal of Fe3+ from other siderophores such as aerobactin” value in series [3] was “able to remove Fe^3+ from other siderophores such as aerobactin”. In series [4], the “binding of Ga(III)” value was “binds Ga(III)”. In addition, in series [5], the “removal of ferric ion from ferric hydroxide” value is listed as “remove ferric ion from ferric hydroxide”. For the same compound, the toxicity result was “very low” in series [6] and “very low toxicity” in series [6] (listed as Anguibactin). Also, the “inhibition of iron uptake by rat heart cells” value in series [7] was “substantially the same results”; in series [7] (listed as Anguibactin), “inhibits iron uptake by living cells”. Also, in [8], the “removal of iron from aqueous solution” value is reported as “capable of removing ferric iron from aqueous solutions, including cell-culture medium; also recorded: very efficient in removing iron from aqueous solution”. Also, the “adverse effect, fish” value in [9] was “no discernable adverse effect”. In addition, in [10], the “level of siderophore in blood and kidneys of infected fish” value was “sufficient to provide iron for considerable growth of the avirulent strain”. Moreover, the “adverse effect, rabbits” value in series [11] is reported as “no discernable adverse effect”. Also, the “affinity for Ca2+ ions” value in series [12] is recorded as “only a very weak affinity”. Also, in series [13] (methanol), the solubility in methanol entry is “freely soluble in water and methanol”. In addition, the solubility in water entry was “highly soluble in water” in [13] and “freely soluble in water” in series [13] (listed as Anguibactin). Moreover, the “binding of metals other than iron known to be essential for bacterial metabolism” value in series [14] is recorded as “does not bind any metal other than iron known to be essential for bacterial metabolism”. Also, the “affinity for ferrous (Fe2+) ions” value in series [15] is listed as “only a very weak affinity; also recorded: little affinity”. The “inhibition of iron uptake by human fibroblast cells” value in series [16] is “inhibits uptake, from a liquid medium, of iron by cultured human diploid fibroblast cells; also recorded: interrupts the flow of iron into human cells”; in series [16] (listed as Anguibactin), “inhibits iron uptake by living cells”. The “affinity for ferric ions” value in [17] is given as “extremely high”. For the same compound, the “dependence of Fe3+ binding on pH” value in [17] is recorded as “dependent on pH”. In [17], the “ferric (Fe3+) ions chelated per molecule” value is “one”. The “iron chelating power compared with deferoxamine” value in series [17] (from competitive binding data) is listed as “more powerful iron chelator than the widely used deferoxamine”. In addition, the “Fe3+ binding in mildly alkaline conditions” value in series [17] (mildly alkaline conditions) was “excellent binding can be achieved”. Also, in series [18] (6N hydrochloric acid), the “cleavage by hydrochloric acid” value is “cleave anguibactin to 2,3-dihydroxybenzoic acid, dehydrocystine, and histamine”. In addition, in series [18] (environment more acidic than pH 3), the “acid hydrolysis below pH 3” value is “undergoes acid hydrolysis to at least a partial degree”. The “pH down to which the molecule remains intact” value in [18] (pH) was no less than 3. In addition, the “removal of Fe3+ from transferrin” value in series [19] was “able to remove Fe^3+”. The excretion of radioiron result in series [20] was “enhance excretion of radioiron”.

In the case of `CC(=O)N(O)CCCCCNC(=O)CCC(=O)N(O)CCCCCNC(=O)CCC(=O)N(O)CCCCCN` [deferoxamine], the “removal of iron from hemoglobin” value in series [21] was “substantially not at all from cytochromes and hemoglobin”. Besides, the excretion of radioiron result in [22] is listed as “enhance excretion of radioiron”. For the same compound, the “capacity of binding ferric iron” value in series [23] is “about 8.5 parts by weight”. Also, in series [24], the toxic reactions result was “toxic and can cause a number of reactions, including allergic reactions: pruritis, wheals, rash, and anaphylaxis; and dysuria, gastrointestinal symptoms, diarrhea, fever, leg cramps, hypotension, and tachycardia”. In series [25], the “Intravenous LD50, rats” value is reported as 329 mg/kg. The “removal of iron from transferrin” value in series [26] is recorded as “not readily from transferrin”. For the same compound, the “Intravenous LD50, mice” value in series [27] is on record as 287 mg/kg. The “absorption after oral administration” value in series [28] is given as “poorly absorbed after oral administration”. For the same compound, the acid hydrolysis entry in series [29] is reported as “prone to acid hydrolysis”. Further, the “removal of iron from cytochromes” value in [30] is listed as “substantially not at all from cytochromes”. Also, in series [31], the “removal of iron from hemosiderin” value was “wrests iron from ferritin and hemosiderin”. The “removal of iron from ferritin” value in [32] is “wrests iron from ferritin”. For the same compound, the “effect on susceptibility of iron-overload patients to Yersinia enterocolitica infections” value in [33] is recorded as “enhanced this susceptibility, resulting in generalized infections”.
